In US11542263B2 (NeuroCycle Therapeutics, Inc., priority 2018, dated 2023):
Values after ≈ are worked out from the molar mass of the structure shown. Read-outs that look alike come from different tables or passages of the source.

What was measured:
Assay type in all cases: physicochemical
[1] = Solubility in aqueous buffers and simulated fluids, 24 h, HPLC; settings: for solubility at 24 h: 22.5 °C, thermodynamic from solid, ~20-25° C., read-out: Measured Conc. (solubility); for solubility at 24 h / Measured Conc. (solubility): ~24 h; for Measured Conc. (solubility): LOQ: 0.1 μg/mL
Procedure: About 2 mg of test article was added to a 1.5 mL vials which contained ˜1.0 mL of one medium listed in Table 7 and Table 8, which was then sealed. The mixtures were stirred at ˜20-25° C. for ˜24 hours. After that, the mixture was filtered by 0.45 μm filter membrane and then the supernatant was analyzed by HPLC.

[2] = Intrinsic dissolution rate in SGF; settings: 37° C., 100 rpm, linear scope within 2 to 120 min
Procedure: About 100 mg of Free Base Polymorphic Form A or Phosphate Polymorphic Form A was weighed into the intrinsic dissolution apparatus and the sample compressed for 1 minute with a compression force of ˜4 MPa to form a compacted pellet within the stainless-steel die. All loose powder was removed from the surface of the die. The intrinsic dissolution shaft was connected with the stainless-steel die and tightened so only one surface of the pellet was exposed (surface area=0.496 cm^2). The shaft in the spindle was adjusted to ensure the exposed surface of the compacted tablet was ˜3.8 cm from the bottom of the vessel when lowered. The temperature of chamber water was set at 37° C.±0.5° C., the shaft rotation at 100 rpm and the sampling time points at 2, 5, 10, 15, 30, 45, 60, 120 min. SGF was used as dissolution medium (900 mL). At each time point, solution samples were filtered, and the supernatant was analyzed by HPLC-UV.

[3] = Accelerated stability testing (HPLC assay and purity); settings: for Assay (%): assay criterion 95%-105%
Procedure: The stability of Phosphate Polymorphic Form and Free Base Polymorphic Form A were evaluated under accelerated conditions.
Appropriately 2 mg of compounds were accurately weighed into a glass vial, then added diluents (ACN/water, 50/50) and sonicated for 2 minutes to dilute the target concentration of 0.2 mg/mL. The solution was equilibrated to room temperature and then the purity of the compounds was determined by HPLC.

[4] = HPLC analysis of degradation of TPA023B with acids in acetone (salt screening)
Procedure: Salt screening via reaction crystallization was preliminarily conducted using five acids in four solvents or solvent mixtures. […] For p-toluenesulfonic acid, about 20 mg of TPA023B and about 1.1 molar equivalents of the corresponding acid were stirred in about 0.5 mL of each solvent. For controls, about 20 mg of TPA023B was stirred in about 0.5 mL of the corresponding solvent. The resulting mixture was heated to about 50° C. with continuous stirring for about 4 hrs and slowly cooled to about 20-25° C. overnight.
HPLC analysis was conducted on the acetone samples to determine the extent of degradation that occurred, if any.

[5] = Approximate solubility of TPA023B in organic solvents; settings: thermodynamic from solid; for solubility at 4 h: 25 °C, RT; for solubility: 50° C.
Procedure: About 25 mg of compound (TPA023B) was added to a 2.0 mL vial containing 0.5 mL of each organic solvent in Table 14, which was then sealed. The mixtures were stirred-mixed at 800 rpm, RT (25° C.) for 4 hours. After that, if the compound was not completely dissolved in the solvent, the mixture was then stirred-mixed at 800 rpm, 50° C. overnight. If the final mixture was clear solution, the solution would be evaporated by vacuum drying oven at 35° C. and the resulted solid would be checked by XRPD. If the final mixture was slurry, the slurry would be centrifuged at 14000 rpm for 5 minutes and then the residues would be dried by vacuum drying oven at 35° C. and checked by XRPD.

[6] = pKa measurement by pH metric method; settings: protonated TPA023B; titrated pH 2 to pH 12, extrapolated to aqueous pKa
Procedure: 10 mg of TPA023B was used for the pKa measurement.
ISA Water (Ionic Strength Adjusted Water, 0.15 M KCl): Accurately weigh 5.591 g KCl into a 500 mL volumetric flask, dissolve the sample with water, add to volume and mix well. Cosolvent of 60% (v/v) DMSO. Dissolve 2.795 g potassium chloride in 100 mL distilled or deionised water and make up to 250 mL with analytical grade DMSO (Ionic strength adjusted DMSO solution).
Cosolvent of 80% (v/v) MeOH: Dissolve 2.795 g potassium chloride in 50 mL distilled or deionized water and make up to 250 mL with analytical grade MeOH (Ionic strength adjusted MeOH solution).
pKa Determination by pH Metric Method (with or without Co-Solvent):
About 1 mg of sample was weighed into a sample vial, about 1.5 mL of ISA water or 1.5 mL of co-solvent (80% MeOH or 60% DMSO) was added into the vial automatically. The sample solution pre-acidified to pH 2.0 with 0.5 M HCl by the instrument automatically, then titrated three times with base to get pKa value from pH 2 to pH 12, and then extrapolated to get aqueous pKa value. Using this method, the pKa of TPA023B was determined to be 2.19.

[7] = pH 3.0 citrate buffer (100 mM), initial pH 3.05
[8] = pH 4.5 citrate buffer (100 mM), initial pH 4.44
[9] = pH 7.4 PBS (50 mM), initial pH 7.40
[10] = pH 9.0 USP Buffer (50 mM), initial pH 8.94
[11] = organic solvent or mixture, 1,4-Dioxane
[12] = organic solvent or mixture, THF

## CC(C)(O)c1cnn2c(-c3ccc(F)c(-c4c(F)cccc4C#N)c3)cnc2n1 [Free Base Polymorphic Form A, 2′,6-difluoro-5′-[3-(1-hydroxy-1-methylethyl)-imidazo[1,2-b][1,2,4]triazin-7-yl]biphenyl-2-carbonitrile]
[1]; pH 1.8, simulated gastric fluid, SGF, initial pH 1.80
  solubility at 24 h: 0.00138 mg/mL (≈ 0.00353 mM)
[1]; simulated gastric fluid, pH 1.2 Hydrochloric Acid Buffer (50 mM), initial pH 1.17
  solubility at 24 h: 0.00977 mg/mL (≈ 0.025 mM)
[1]; FaSSIF, initial pH 6.51
  solubility at 24 h: 0.00211 mg/mL (≈ 0.00539 mM)
  pH value of supernatant: 6.50
[1]; FeSSIF, initial pH 5.00
  solubility at 24 h: 0.00963 mg/mL (≈ 0.0246 mM)
  pH value of supernatant: 5.02
[1]; Purified water, initial pH 7.02, target 2 mg/mL
  solubility at 24 h: 0.00014 mg/mL (≈ 0.000358 mM)
[1]; Purified water, initial pH 7.02
  pH value of supernatant: 8.73
[1]; SGF, initial pH 1.80
  pH value of supernatant: 1.86
[1]; pH 1.2 Hydrochloric Acid Buffer (50 mM), initial pH 1.17
  pH value of supernatant: 1.12
[1]; [7]
  pH value of supernatant: 3.00
  Measured Conc. (solubility): <LOQ
[1]; [8]
  pH value of supernatant: 4.45
  Measured Conc. (solubility): <LOQ
[1]; [9]
  pH value of supernatant: 7.42
  Measured Conc. (solubility): <LOQ
[1]; [10]
  pH value of supernatant: 8.98
  Measured Conc. (solubility): <LOQ
[2]
  intrinsic dissolution rate: 5×10^−5 mg cm^2 min-t
[3]; 40° C./75% RH (open), 1 week
  Purity (%): 98.64%
  Assay (%): 102.35%
[3]; 80° C. (open), 1 week
  Purity (%): 98.62%
  Assay (%): 101.60%
[3]; Initial
  Purity (%): 98.72%
  Assay (%): 105.51%
[3]; Light, ~50 h
  Purity (%): 98.60%
  Assay (%): 104.28%

## CC(C)(O)c1cnn2c(-c3ccc(F)c(-c4c(F)cccc4C#N)c3)cnc2n1 [TPA023B, 2′,6-difluoro-5′-[3-(1-hydroxy-1-methylethyl)-imidazo[1,2-b][1,2,4]triazin-7-yl]biphenyl-2-carbonitrile]
[4]; control in acetone, 50° C. about 4 hrs
  Purity (%): 99.33%
[4]; with H2SO4 in acetone
  Purity (%): 98.33%
[4]; with H3PO4 in acetone
  Purity (%): 98.88%
[4]; with HCl in acetone
  Purity (%): 98.61%
[4]; with methane sulfonic acid in acetone
  Purity (%): 98.71%
[4]; with p-toluene sulfonic acid in acetone
  Purity (%): 98.65%
[5]; [11]
  solubility at 4 h: < 50 mg/mL
  solubility: > 50 mg/mL
[5]; organic solvent or mixture, DMF
  solubility at 4 h: > 50 mg/mL
[5]; organic solvent or mixture, DMSO
  solubility at 4 h: > 50 mg/mL
[5]; [12]
  solubility at 4 h: < 50 mg/mL
  solubility: > 50 mg/mL
[5]; aqueous with cosolvent or surfactant or cyclodextrin, Acetone/H2O (1/1, v/v)
  solubility: < 50 mg/mL
[5]; aqueous with cosolvent or surfactant or cyclodextrin, EtOH/H2O (1/1, v/v)
  solubility: < 50 mg/mL
[5]; organic solvent or mixture, Acetone
  solubility: < 50 mg/mL
[5]; organic solvent or mixture, Acetonitrile (ACN)
  solubility: < 50 mg/mL
[5]; organic solvent or mixture, DCM
  solubility: < 50 mg/mL
[5]; organic solvent or mixture, EtOAc
  solubility: < 50 mg/mL
[5]; organic solvent or mixture, Ethanol
  solubility: < 50 mg/mL
[5]; organic solvent or mixture, Heptane
  solubility: < 50 mg/mL
[5]; organic solvent or mixture, Isopropanol
  solubility: < 50 mg/mL
[5]; organic solvent or mixture, MEK
  solubility: < 50 mg/mL
[5]; organic solvent or mixture, MTBE
  solubility: < 50 mg/mL
[5]; organic solvent or mixture, Methanol
  solubility: < 50 mg/mL
[5]; organic solvent or mixture, Toluene
  solubility: < 50 mg/mL
[5]; water, H2O
  solubility: < 50 mg/mL
[6]
  pKa: ~2.19
